This note sets out measurements from ChEMBL document CHEMBL5634148, “Synthesis and evaluation of novel pleuromutilin derivatives targeting the 50S ribosomal subunit for antibacterial ability” (Eur J Med Chem, 2023).

Data set [1] concerns Staphylococcus aureus. Kind of data set: Antibacterial activity against methicillin-resistant Staphylococcus aureus infected in neutropenic Balb/c mouse model assessed as thickening of alveolar septa in lungs at 40 mg/kg, iv measured after 5 days. As to conditions: time 5.0 day. In kind it is functional, organism-based.
Data set [2] in a line: Toxicity in Wistar rat assessed as capillary congestion in lungs at 2000 mg/kg, po measured for 14 days by H and E staining based analysis. In kind it is organism-based. As to conditions: in vivo, 336 h, time 14 day.
Data set [3] can be described thus: Toxicity in Wistar rat assessed as relative lungs weight at 2000 mg/kg, po measured after 14 days (reference value: 0.62 +/- 0.18 %). In kind it is organism-based. To be noted: in vivo, 336 h, time 14 day.
The nature of data set [4]: Toxicity in Wistar rat assessed as congestion in hepatic central vein at 2000 mg/kg, po measured for 14 days by H and E staining based analysis. To be noted: in vivo, 336 h, time 14 day. It counts as organism-based.
Data set [5] in a line: Toxicity in neutropenic Balb/c mouse model infected with methicillin-resistant Staphylococcus aureus assessed as animal survival at 40 mg/kg, iv measured for 7 days. In kind it is organism-based. As to conditions: in vivo, 168 h, time 7 day.
The subject of data set [6] is Staphylococcus aureus. Kind of data set: Antibacterial activity against methicillin-resistant Staphylococcus aureus infected in neutropenic Balb/c mouse model assessed as reduction in bacterial load in liver at 40 mg/kg, iv measured after 5 days. It counts as functional, organism-based. To be noted: time 5.0 day.
Data set [7] is described as follows: Toxicity in Wistar rat assessed as absolute lungs weight at 2000 mg/kg, po measured after 14 days (reference value: 1.38 +/- 0.17 g). In kind it is organism-based. To be noted: in vivo, 336 h, time 14 day.
The nature of data set [8]: Cytotoxicity against HEK293T cells assessed as cell viability at 200 uM incubated for 6 hrs by CCK8 assay relative to control. It counts as toxicity, cell-based, HEK-293T. As to conditions: human, read-out: Activity.
Data set [9] is described as follows: Toxicity in Wistar rat assessed as food intake at 2000 mg/kg, po measured for 14 days. It counts as organism-based. As to conditions: in vivo, 336 h, time 14 day.
Data set [10] is described as follows: Toxicity in Wistar rat assessed as relative spleen weight at 2000 mg/kg, po measured after 14 days (reference value: 0.20 +/- 0.07 %). It counts as organism-based. As to conditions: in vivo, 336 h, time 14 day.
Data set [11] deals with Staphylococcus aureus. Kind of data set: Antibacterial activity against Staphylococcus aureus ATCC 25923 assessed as bacterial growth inhibition incubated for 18 to 24 hrs by NCCLS based assay. It counts as functional. To be noted: time 18-24 hrs.
Data set [12] is described as follows: Toxicity in po-dosed Wistar rat measured for 14 days by H and E staining based analysis. As to conditions: in vivo, time 14 day.

Converted amounts (≈) assume the structure as drawn. The source made the active and inactive calls. No cut-off for these calls is given here.

The term MIC denotes the least concentration at which growth counts as inhibited. As a reminder, the LD50 is the dose expected to kill half of the subjects tested. Read a high LD50 as a less toxic substance. `C=C[C@]1(C)C[C@@H](OC(=O)CSc2ncnc(N(C)C)n2)[C@]2(C)[C@H](C)CC[C@]3(CCC(=O)[C@H]32)[C@@H](C)[C@@H]1O`: the outcome in the data set with Staphylococcus aureus [1] and in the data set on Staphylococcus aureus [6] was Active. In addition, the Activity result in [2] is “Toxic”; in data set [3], 0.53%; in data set [4], “Toxic”; in data set [5] it was 70%; in [7] it was 1.21 g; in data set [9] it was “Toxic”. The Activity in data set [10] was determined as 0.26%. For the same compound, the viability at 6 h, 200 µM in data set [8] came out at 66.9%. Further, the MIC in the data set on Staphylococcus aureus [11] is 0.031 µg/mL (≈ 0.06 µM). In data set [12], this compound showed an LD50 at 336 h of more than 2000 mg/kg.
